# “And” between values parts separate entries of the source, which are not always exact repeats. Identical values can stand only once. “Also recorded” adds a separate entry of the source.
# Assays:
# [1] = test system: w794 DNA, 5'-AATTA high affinity site; assay: Relative rate of DNA alkylation at the w794 5'-AATTA high affinity site; assay type: biochemical, SV40; details: 10^-6 M, 25° C.
# Description: Rate of DNA Alkylation. The relative rates of DNA alkylation for the natural enantiommers of CCBI-TMI (35) and CCBI-indole2 (37) versus those of the corresponding CBI and MCBI agents were measured at the single high affinity site in w794, 5'-AATTA. The relative rates earlier studies of DNA alkylation for MCBI-TMI, CBI-TMI, and duocarmycin SA were determined to be quite similar at 4° C., 1.8:1.0:0.9, respectively. […] In prior studies, we have highlighted similar observations with agents that span a much larger range of relative reactivities.
# The DNA alkylation selectivity and efficiency of the natural enantiomers of 304-307 were compared with that of 1 in w794 DNA. […] These trends in the overall efficiency of DNA alkylation parallel the relative trends in cytotoxic potency.
# (§1) DNA Alkylation Relative Rate of (+)-CCBI-TMI (35), (+)-CBI-TMI, and (+)-MCBI-TMI. Following the procedure detailed above, Eppendorf tubes containing 5' end-labeled w794 DNA (9 μL) in TE buffer (pH 7.5) were treated with (+)-CCBI-TMI (35), (+)-CBI-TMI, or (+)-MCBI-TMI (1 μL, 10^-6 M in DMSO). The solutions were mixed and incubated at 25° C. for 2, 4, 6, 9, 12, 15, and 24 h, respectively. Subsequent isolation of the alkylated DNA by EtOH precipitation, resuspension in TE buffer (10 μL, pH 7.5), thermolysis (30 min, 100° C.), PAGE, and autoradiography were conducted as detailed above. Relative rates for alkylation at the w794 high-affinity 5'-AATTA site were derived from the slopes of the plots of percent integrated optical density (IOD) of the high-affinity alkylation cleavage bands versus time.
# as §1, with “(+)-CCBI-indole2 (37), (+)-CBI-indole2,” for “(+)-CCBI-TMI (35), (+)-CBI-TMI,”, “(+)-MCBI-indole2.” for “(+)-MCBI-TMI.”, “(+)-CCBI-indole2 (37), (+)-CBI-indole2, and (+)-MCBI-indole2” for “(+)-CCBI-TMI (35), (+)-CBI-TMI, or (+)-MCBI-TMI”
# [2] = test system: w794 DNA, 5'-AATTA high affinity site; details: 4° C., earlier studies, 1.8:1.0:0.9; cited from earlier work
# [3] = in vivo; cited from earlier work
# calf thymus DNA = assay: DNA alkylation of calf thymus DNA, recovery of unreacted agent; assay type: biochemical; details: 37° C., 48-72 h, 1:51 agent:base-pair ratio
# Description: DNA Alkylation of Calf Thymus DNA. An aliquot of agent (5 μL, 0.01 M in DMSO) was added to a calf thymus DNA solution (0.45 mL, 3.79 mg/mL, 10 mM sodium phosphate, pH 7.0, base-pair:agent=51:1). The DNA-agent mixtures were incubated at 37° C. for 72 h for both enantiomers of 105, 106 and 107 or at 37° C. for 48 h for 108, 109, 110 and 111. For both enantiomers of 105, 106, 108 and 110, the unreacted materials were extracted with EtOAc (0.5 mL×4). The combined extracts were dried and dissolved in EtOAc (0.9 mL) and the quantities of 105, 106, 108, and 110 were determined by UV. Additional extraction with EtOAc (0.5 mL×4) was carried out, and the amounts of combined material were determined by UV. No additional material was recovered. For the ionic agents 107, 109 and 111, the unreacted materials were recovered from the supernatants of EtOH precipitation of the DNA. The EtOH in the supernatant was removed by a stream of N2. The supernatants were diluted to 0.9 mL with H2 O and the recovered quantities of 107, 109, and 111 were determined by UV.
# These studies were conducted alongside control reactions conducted in the absence of DNA. An aliquot of agent (5 μL, 0.01 M in DMSO) was added to sodium phosphate buffer (0.45 mL, 10 mM, pH 7.0). The agent-buffer mixtures were incubated at 37° C. for 72 h for both enantiomers of 105, 106 and 107 or at 37° C. for 48 h for 108, 109, 110 and 111. For 105, 106, 108 and 110, the materials were extracted with EtOAc (0.5 mL×4). The combined extracts were dried and dissolved in EtOAc (0.9 mL) and the agent quantities were determined by UV. For the ionic agents 107, 109 and 111, the agent-buffer mixtures were diluted to 0.9 mL with H2 O and their quantities were determined by UV.
# L1210 = assay: In vitro cytotoxic activity, L1210; details: L1210
# w794 duplex DNA = assay: DNA alkylation selectivity and efficiency within w794 DNA, thermally-induced strand cleavage and PAGE; assay type: biochemical, SV40; details: for DNA alkylation, failure to alkylate: 105-107: 37° C., 72 h, up to 10^-2 M, 108 and 110: 10^-3 M or lower
# Excerpt: DNA Alkylation Selectivity and Efficiency. The DNA alkylation properties of the agents were examined within w794 duplex DNA, a 144 base-pair segment of duplex DNA for which comparative results are available for related agents. The alkylation site identification and the assessment of the relative selectivity among the available sites were obtained by thermally-induced strand cleavage of the singly 5' end-labeled duplex DNA after exposure to the agents. Following treatment of the end-labeled duplex DNA with a range of agent concentrations, the unbound agent was removed by EtOH precipitation of the DNA. Redissolution of the DNA in aqueous buffer, thermolysis (100° C., 30 min) to induce strand cleavage at the sites of DNA alkylation, denaturing high resolution polyacrylamide gel electrophoresis (PAGE) adjacent to Sanger dideoxynucleotide sequencing standards, and autoradiography led to identification of the DNA cleavage and alkylation sites. The DNA alkylation reaction selectivities observed under the incubation conditions for the agents detailed herein have proven identical to the alkylation selectivities observed with shorter or extended reaction periods or when the reactions were conducted at different temperatures (37 or 4° C., 0.5-7 d). As discussed below, the rates and efficiencies but not final relative efficiencies of DNA alkylation were altered by changing the reaction temperatures.
# DNA Alkylation Properties. […] The DNA alkylation reaction was examined within w794 DNA for which comparative results are available for past agents. The alkylation site identification was obtained by thermal strand cleavage of the singly 5' end-labeled duplex DNA after exposure to the agents. Following treatment of the labeled DNA with a range of agent concentrations, the unbound agent was removed by EtOH precipitation of the DNA. Redissolution of the DNA in aqueous buffer, thermolysis at 100° C. (30 min) to induce depurination and strand cleavage at the adenine N3 or guanine N3 minor groove alkylation sites, denaturing high resolution PAGE adjacent to Sanger sequencing standards and autoradiography provided the DNA cleavage and alkylation sites.
# DNA Alkylation Studies: selectivity and Efficiency. General procedures, the preparation of singly ^32 P 5' end-labeled double stranded DNA, the agent binding studies, gel electrophoresis, and autoradiography were conducted according to standard procedures. Eppendorf tubes containing the 5' end-labeled DNA (9 μL) in TE buffer (10 mM Tris, 1 mM EDTA, pH 7.5) were treated with the agent in DMSO (1 μL at the specified concentration). The solution was mixed by vortexing and brief centrifugation and subsequently incubated at 4 or 25° C. for 24 h (natural enantiomers) and 25 or 37° C. (unnatural enantiomers) for 72 h. The covalently modified DNA was separated from unbound agent by EtOH precipitation and resuspended in TE buffer (10 μL). The solution of DNA in an Eppendorf tube sealed with parafilm was warmed at 100° C. for 30 min to induce cleavage at the alkylation sites, allowed to cool to 25° C. and centrifuged. Formamide dye (0.03% xylene cyanol FF, 0.03% bromophenol blue, 8.7% Na2 EDTA 250 mM) was added (5 μL) to the supernatant. Prior to electrophoresis, the sample was denatured by warming at 100° C. for 5 min, placed in an icebath, and centrifuged, and the supernatant (3 μL) was loaded directly onto the gel. Sanger dideoxynucleotide sequencing reactions were run as standards adjacent to the reaction samples. Polyacrylamide gel electrophoresis (PAGE) was run on an 8% sequencing gel under denaturing conditions (8 M urea) in TBE buffer (100 mM Tris, 100 mM boric acid, 0.2 mM Na2 EDTA) followed by autoradiography.
# DNA Alkylation of w794 DNA. Eppendorf tubes containing the 5'-end labeled DNA (9 μL) in TE buffer (10 mM Tris, 1 mM EDTA, pH 7.2) were treated with the agent in DMSO (1 μL at the specified concentration). […]
structure (smiles),measurement,setting,value
"COc1cc2cc(C(=O)N3CC4CC45C3=CC(=O)c3ccccc35)[nH]c2c(OC)c1OC (single isomer, unassigned) [CBI-TMI]","relative rate of DNA alkylation, TMI series",[1],1.0 ×
same,relative rate of DNA alkylation,[2],1.0
"COc1ccc2c(c1)C13CC1CN(C(=O)c1cc4cc(OC)c(OC)c(OC)c4[nH]1)C3=CC2=O (single isomer, unassigned) [MCBI-TMI]","relative rate of DNA alkylation, TMI series",[1],1.9 ×
same,relative rate of DNA alkylation,[2],1.8
"COc1c(O)c2c(c3cc(C(=O)N4CCc5c4c(O)c(OC)c4[nH]c(C(=O)N6CC7CC78C6=CC(=O)c6[nH]cc(C)c68)cc54)[nH]c13)CCN2C(N)=O (single isomer, unassigned) [ent-(-)-CC-1065]",delayed toxicity,[3],has not been observed
"CSCCCNC(=O)c1csc(-c2csc(CCNC(=O)C(=O)N3CC(CCl)c4c3cc(O)c3ccccc43)n2)n1 (stereo not drawn) [compound 105, 3-[2'-(2-(2-(1-Chloromethyl-5-hydroxy-1,2-dihydro-3H-benz[e]indol-3-yl)-1,2-dioxoethyl)aminoethyl)-2,4'-bithiazole-4-carboxamido]propyl Methyl Sulfide]",DNA alkylation of calf thymus DNA,calf thymus DNA,recovered nearly quantitatively
same,cytotoxic potency in comparison with CBI building block or simple CBI derivatives,L1210,approached the cytotoxic potency of 114
"C[S+]([O-])CCCNC(=O)c1csc(-c2csc(CCNC(=O)C(=O)N3CC(CCl)c4c3cc(O)c3ccccc43)n2)n1 (stereo not drawn) [compound 106, 3-[2'-(2-(2-(1-Chloromethyl-5-hydroxy-1,2-dihydro-3H-benz[e]indol-3-yl)-1,2-dioxoethyl)aminoethyl)-2,4'-bithiazole-4-carboxamido]propyl Methyl Sulfoxide]",DNA alkylation of calf thymus DNA,calf thymus DNA,recovered nearly quantitatively
"CSCCCNC(=O)c1csc(-c2csc(CCNC(=O)CCC(=O)N3CC(CCl)c4c3cc(O)c3ccccc43)n2)n1 (stereo not drawn) [compound 108, 3-[2'-(2-(2-(1-Chloromethyl-5-hydroxy-1,2-dihydro-3H-benz[e]indol-3-yl)-1,4-dioxobutyl)aminoethyl)-2,4'-bithiazole-4-carboxamido]propyl Methyl Sulfide]",DNA alkylation of calf thymus DNA,calf thymus DNA,recovered nearly quantitatively
same,"DNA alkylation, failure to alkylate",w794 duplex DNA,failed to alkylate DNA at concentrations of 10^-3 M or lower; also recorded: no reaction is observed
"C[S+](C)CCCNC(=O)c1csc(-c2csc(CCNC(=O)CCC(=O)N3CC(CCl)c4c3cc(O)c3ccccc43)n2)n1.[I-] (stereo not drawn) [compound 109, 3-[2'-(2-(4-(1-Chloromethyl-5-hydroxy-1,2-dihydro-3H-benz[e]indol-3-yl)-1,4-dioxobutyl)aminoethyl)-2,4'-bithiazole-4-carboxamido]propyl Dimethyl Sulfonium Iodide]",DNA alkylation of calf thymus DNA,calf thymus DNA,perceptible covalent attachment to the calf thymus DNA
same,"DNA alkylation properties, comparison in words",w794 duplex DNA,only slightly more effective than 116
same,DNA alkylation sequence selectivity,w794 duplex DNA,"5'-AA, 5'-TA and identical to that of N-BOC-CBI (123) and 116"
"CSCCCNC(=O)c1csc(-c2csc(CCNC(=O)[C@@H](NC(=O)CCC(=O)N3CC(CCl)c4c3cc(O)c3ccccc43)[C@@H](C)O)n2)n1 (stereo partly drawn) [compound 110, 3-[2'-(2-((4-(1-Chloromethyl-5-hydroxy-1,2-dihydro-3H-benz[e]indol-3-yl)-1,4-dioxobutyl)-L-threonyl)aminoethyl)-2,4'-bithiazole-4-carboxamido]propyl Methyl Sulfide]",DNA alkylation of calf thymus DNA,calf thymus DNA,recovered nearly quantitatively
same,"DNA alkylation, failure to alkylate",w794 duplex DNA,failed to alkylate DNA at concentrations of 10^-3 M or lower
"C[C@@H](O)[C@H](NC(=O)CCC(=O)N1CC(CCl)c2c1cc(O)c1ccccc21)C(=O)NCCc1nc(-c2nc(C(=O)NCCC[S+](C)C)cs2)cs1 (stereo partly drawn) [compound 111, 3-[2'-(2-((4-(1-Chloromethyl-5-hydroxy-1,2-dihydro-3H-benz[e]indol-3-yl)-1,4-diooxobutyl)-L-threonyl)aminoethyl)-2,4'-bithiazole-4-carboxamido]propyl Dimethyl Sulfonium Iodide]",DNA alkylation of calf thymus DNA,calf thymus DNA,perceptible covalent attachment to the calf thymus DNA
same,"DNA alkylation properties, comparison in words",w794 duplex DNA,only slightly more effective than 116
same,DNA alkylation sequence selectivity,w794 duplex DNA,"5'-AA, 5'-TA and identical to that of N-BOC-CBI (123) and 116"

# Reference: US6060608A, “Analogs of CC-1065 and the duocarmycins” (The Scripps Research Institute, priority 1999, dated 2000)
